In patent publication US20080194524A1, “Compounds For the Inhibition of Undesired Cell Proliferation and Use Thereof” (JERINI AG, priority 2003, published 2008):
Where two headings read alike, the source gives them in different places. Where a SMILES comes first, the peptide text is derived from it. [ ]: non-standard residue; d: D form. The star is where a group is joined. 2Nal = N[C@@H](Cc1ccc2ccccc2c1)C(=O)O; Bta = N[C@@H](Cc1csc2ccccc12)C(=O)O; Benzyl(4-Cl) = Clc1ccc(C*)cc1; Pip = O=C(O)[C@@H]1CCCCN1; CH2PO3H2 = O=P(O)(O)C*; Inp = O=C(O)C1CCNCC1; Mpa = O=C(O)CCS

Molecular target: hPin1 (Protein interacting with NIMA (-kinase)) (Homo sapiens, UniProt Q13526)
Sequence (Q13526 whole entry): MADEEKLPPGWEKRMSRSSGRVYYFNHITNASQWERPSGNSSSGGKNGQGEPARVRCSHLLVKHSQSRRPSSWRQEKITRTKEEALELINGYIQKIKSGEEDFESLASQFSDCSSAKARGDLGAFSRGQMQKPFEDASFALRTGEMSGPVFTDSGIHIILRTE
Test: protease-coupled PPIase assay, hPin1
Format: biochemical
[1] = hPin1 6 nM, substrate Ac-Ala-Ala-Ser(PO3H2)-Pro-Arg-pNA, trypsin, 35 mM HEPES pH 7.8, 6° C., read-out: Specificity of the inhibition with rotamases, Target T-1 (IC50 class)

IC50 [1] | Structure (SMILES) | IC50
< 1000 nM | NC(=O)[C@H](Cc1ccc2ccccc2c1)NC(=O)[C@@H]1CCCCN1C(=O)[C@H](CSCP(=O)(O)O)NC(=O)c1cccc(Oc2ccccc2)c1 [Compound 14, [3-[2-(1-Carbamoyl-2-naphthalen-2-yl-ethylcarbamoyl)-piperidin-1-yl]-3-oxo-2-(3-phenoxy-benzoylamino)-propylsulfanylmethyl]-phosphonicacid] | –
< 1000 nM | NC(=O)[C@H](Cc1ccc2ccccc2c1)NC(=O)[C@@H]1CCCCN1C(=O)[C@H](CSCP(=O)(O)O)NC(=O)Cc1ccc2c(c1)OCO2 [Compound 56, {2-(2-Benzo[1.3]dioxol-5-yl-acetylamino)-3-[2-(1-carbamoyl-2-naphthalen-2-yl-ethylcarbamoyl)-piperidin-1-yl]-3-oxo-propylsulfanylmethyl}-phosphonic acid] | –
< 1000 nM | NC(=O)[C@H](Cc1ccc2ccccc2c1)NC(=O)[C@@H]1CCCCN1C(=O)[C@H](CSCP(=O)(O)O)NC(=O)OCc1ccccc1 [Compound 31, {2-Benzyloxycarbonylamino-3-[2-(1-carbamoyl-2-naphthalen-2-yl-ethylcarbamoyl)-piperidin-1-yl]-3-oxo-propylsulfanylmethyl}-phosphonic acid] | –
< 1000 nM | NC(=O)[C@H](Cc1ccc2ccccc2c1)NC(=O)[C@@H]1CCCCN1C(=O)[C@H](CSCP(=O)(O)O)NC(=O)CCCC(=O)c1ccc(Cl)cc1 [Compound 7, {3-[2-(1-Carbamoyl-2-naphthalen-2-yl-ethylcarbamoyl)-piperidin-1-yl]-2-[5-(4-chloro-phenyl)-5-oxo-pentanoylamino]-3-oxo-propylsulfanylmethyl}-phosphonicacid] | –
< 1000 nM | NC(=O)[C@H](Cc1ccc2ccccc2c1)NC(=O)[C@@H]1CCCCN1C(=O)[C@H](CSCP(=O)(O)O)NC(=O)CCCc1ccccc1 [Compound 23, [3-[2-(1-Carbamoyl-2-naphthalen-2-yl-ethylcarbamoyl)-piperidin-1-yl]-3-oxo-2-(4-phenyl-butyrylamino)-propylsulfanylmethyl]-phosphonicacid] | –
1000 to 10000 nM | O=C(NCCCc1ccccc1)[C@@H]1CCCCN1C(=O)CSCP(=O)(O)O [Compound 68, {2-Oxo-2-[2-(3-phenyl-propylcarbamoyl)-piperidin-1-yl]-ethylsulfanylmethyl}-phosphonicacid] | –
1000 to 10000 nM | CS(=O)(=O)N[C@@H](CSCP(=O)(O)O)C(=O)N1CCCC[C@H]1C(=O)N[C@@H](Cc1ccc2ccccc2c1)C(N)=O [Compound 51, {3-[2-(1-Carbamoyl-2-naphthalen-2-yl-ethylcarbamoyl)-piperidin-1-yl]-2-methanesulfonylamino-3-oxo-propylsulfanylmethyl}-phosphonic acid] | –
< 1000 nM | NC(=O)[C@H](Cc1ccc2ccccc2c1)NC(=O)[C@@H]1CCCCN1C(=O)[C@H](CSCP(=O)(O)O)NC(=O)CCC(=O)c1ccc(Cl)cc1 [Compound 37, {3-[2-(1-Carbamoyl-2-naphthalen-2-yl-ethylcarbamoyl)-piperidin-1-yl]-2-[4-(4-chloro-phenyl)-4-oxo-butyrylamino]-3-oxo-propylsulfanylmethyl}-phosphonicacid] | –
< 1000 nM | O=C(NC(Cc1ccc2ccccc2c1)c1ccccn1)[C@@H]1CCCCN1C(=O)CSCP(=O)(O)O (stereo partly shown) [Compound 77, {2-[2-(2-Naphthalen-2-yl-1-pyridin-2-yl-ethylcarbamoyl)-piperidin-1-yl]-2-oxo-ethylsulfanylmethyl}-phosphonicacid] | –
< 1000 nM | COc1ccc(NC(=O)CC(SCP(=O)(O)O)C(=O)N2CCCC[C@H]2C(=O)N[C@@H](Cc2ccc3ccccc3c2)C(N)=O)cc1 (mixture of isomers) [Compound 70, {2-[2-(1-Carbamoyl-2-naphthalen-2-yl-ethylcarbamoyl)-piperidin-1-yl]-1-[(4-methoxy-phenyl-carbamoyl)-methyl]-2-oxo-ethylsulfanylmethyl}-phosphonicacid] | –
< 1000 nM | NC(=O)[C@H](Cc1ccc2ccccc2c1)NC(=O)[C@@H]1CCCCN1C(=O)[C@H](CSCP(=O)(O)O)NS(=O)(=O)CCc1ccccc1 [Compound 49, [3-[2-(1-Carbamoyl-2-naphthalen-2-yl-ethylcarbamoyl)-piperidin-1-yl]-3-oxo-2-(2-phenyl-ethanesulfonylamino)-propylsulfanylmethyl]-phosphonicacid] | –
< 1000 nM | COc1ccccc1CC(=O)N[C@@H](CSCP(=O)(O)O)C(=O)N1CCCC[C@H]1C(=O)N[C@@H](Cc1ccc2ccccc2c1)C(N)=O [Compound 58, {3-[2-(1-Carbamoyl-2-naphthalen-2-yl-ethylcarbamoyl)-piperidin-1-yl]-2-[2-(2-methoxy-phenyl)-acetylamino]-3-oxo-propylsulfanylmethyl}-phosphonicacid] | –
< 1000 nM | CC(=O)N[C@@H](Cc1csc2ccccc12)C(=O)N[C@@H](CSCP(=O)(O)O)C(=O)N(C)N(C)C(=O)N[C@@H](Cc1ccc2ccccc2c1)C(N)=O [Compound 26, Ac-Bta-Cys(CH2—P(O)(OH)2)-NMeazaAla-2Nal-NH2] | –
< 1000 nM | NC(=O)[C@H](Cc1ccc2ccccc2c1)NC(=O)[C@@H]1CCCCN1C(=O)[C@H](CSCP(=O)(O)O)NS(=O)(=O)c1ccccc1 [Compound 48, {2-Benzenesulfonylamino-3-[2-(1-carbamoyl-2-naphthalen-2-yl-ethylcarbamoyl)-piperidin-1-yl]-3-oxo-propylsulfanylmethyl}-phosphonic acid] | –

Continued, compound first:

Structure (SMILES) | IC50 [1] | IC50
COc1ccc(CC(=O)N[C@@H](CSCP(=O)(O)O)C(=O)N2CCCC[C@H]2C(=O)N[C@@H](Cc2ccc3ccccc3c2)C(N)=O)cc1 [Compound 36, {3-[2-(1-Carbamoyl-2-naphthalen-2-yl-ethylcarbamoyl)-piperidin-1-yl]-2-[2-(4-methoxy-phenyl)-acetylamino]-3-oxo-propylsulfanylmethyl}-phosphonicacid] | < 1000 nM | –
O=C(NCc1ccccc1)[C@@H]1CCCCN1C(=O)CSCP(=O)(O)O [Compound 66, [2-(2-Benzylcarbamoyl-piperidin-1-yl)-2-oxo-ethylsulfanylmethyl]-phosphonic acid] | 1000 to 10000 nM | –
NC(=O)[C@H](Cc1ccc2ccccc2c1)NC(=O)[C@@H]1CCCCN1C(=O)[C@H](CSCP(=O)(O)O)NC(=O)CCSCc1ccc(Cl)cc1 [Compound 5, {3-[2-(1-Carbamoyl-2-naphthalen-2-yl-ethylcarbamoyl)-piperidin-1-yl]-2-[3-(4-chloro-benzylsulfanyl)-propionylamino]-3-oxo-propylsulfanylmethyl}-phosphonicacid] ([Mpa](Benzyl(4-Cl))C(CH2PO3H2)[Pip][2Nal]-NH2) | < 1000 nM | –
NC(=O)[C@H](Cc1ccc2ccccc2c1)NC(=O)[C@@H]1CCCCN1C(=O)[C@H](CSCP(=O)(O)O)NC(=O)C1CSC(=O)N1C(=O)C1CSC(=O)N1 (stereo partly shown) [Compound 13, (3-[2-(1-Carbamoyl-2-naphthalen-2-yl-ethylcarbamoyl)-piperidin-1-yl]-3-oxo-2-{[2-oxo-3-(2-oxo-thiazolidine-4-carbonyl)-thiazolidine-4-carbonyl]-amino}-propylsulfanylmethyl)-phosphonicacid] | – | < 1000 nM
NC(=O)[C@H](Cc1ccc2ccccc2c1)NC(=O)[C@@H]1CCCCN1C(=O)[C@H](CSCP(=O)(O)O)NC(=O)Cc1ccccc1Cl [Compound 34, {3-[2-(1-Carbamoyl-2-naphthalen-2-yl-ethylcarbamoyl)-piperidin-1-yl]-2-[2-(2-chloro-phenyl)-acetylamino]-3-oxo-propylsulfanylmethyl}-phosphonicacid] | < 1000 nM | –
NC(=O)[C@H](Cc1ccc2ccccc2c1)NC(=O)[C@@H]1CCCCN1C(=O)[C@H](CSCP(=O)(O)O)NC(=O)[C@H](Cc1csc2ccccc12)NC(=O)C1CCNCC1 [Compound 18, {2-{3-Benzo[b]thiophen-3-yl-2-[(piperidine-4-carbonyl)-amino]-propionylamino}-3-[2-(1-carbamoyl-2-naphthalen-2-yl-ethylcarbamoyl)-piperidin-1-yl]-3-oxo-propylsulfanylmethyl}-phosphonic acid] (H-[Inp][Bta]C(CH2PO3H2)[Pip][2Nal]-NH2) | – | < 1000 nM
NC(=O)[C@H](Cc1ccc2ccccc2c1)NC(=O)[C@@H]1CCCCN1C(=O)[C@H](CSCP(=O)(O)O)NC(=O)CCCCc1ccccc1 [Compound 8, [3-[2-(1-Carbamoyl-2-naphthalen-2-yl-ethylcarbamoyl)-piperidin-1-yl]-3-oxo-2-(5-phenyl-pentanoylamino)-propylsulfanylmethyl]-phosphonicacid] | < 1000 nM | –
COc1cc(CC(=O)N[C@@H](CSCP(=O)(O)O)C(=O)N2CCCC[C@H]2C(=O)N[C@@H](Cc2ccc3ccccc3c2)C(N)=O)cc(OC)c1 [Compound 57, {3-[2-(1-Carbamoyl-2-naphthalen-2-yl-ethylcarbamoyl)-piperidin-1-yl]-2-[2-(3.5-dimethoxy-phenyl)-acetylamino]-3-oxo-propylsulfanylmethyl}-phosphonicacid] | < 1000 nM | –
Cc1cc(C)c(S(=O)(=O)N[C@@H](CSCP(=O)(O)O)C(=O)N2CCCC[C@H]2C(=O)N[C@@H](Cc2ccc3ccccc3c2)C(N)=O)c(C)c1 [Compound 52, [3-[2-(1-Carbamoyl-2-naphthalen-2-yl-ethylcarbamoyl)-piperidin-1-yl]-3-oxo-2-(2.4.6-trimethyl-benzenesulfonylamino)-propylsulfanylmethyl]-phosphonicacid] | 1000 to 10000 nM | –
NC(=O)[C@H](Cc1ccc2ccccc2c1)NC(=O)[C@@H]1CCCCN1C(=O)[C@H](CSCP(=O)(O)O)NC(=O)CCc1ccccc1 [Compound 22, [3-[2-(1-Carbamoyl-2-naphthalen-2-yl-ethylcarbamoyl)-piperidin-1-yl]-3-oxo-2-(3-phenyl-propionylamino)-propylsulfanylmethyl]-phosphonicacid] | < 1000 nM | –
NC(=O)[C@H](Cc1ccc2ccccc2c1)NC(=O)[C@@H]1CCCCN1C(=O)[C@H](CSCP(=O)(O)O)NC(=O)C1CCc2ccccc2C1 (stereo partly shown) [Compound 15, {3-[2-(1-Carbamoyl-2-naphthalen-2-yl-ethylcarbamoyl)-piperidin-1-yl]-3-oxo-2-[(1.2.3.4-tetrahydro-naphthalene-2-carbonyl)-amino]-propylsulfanylmethyl}-phosphonicacid] | 1000 to 10000 nM | –
